Experimental findings from US20080216197A1, “Polypeptide Having Function Related to Pyridoxine Biosynthesis, Polynucleotide Coding the Polypeptide, and Those Use” (Genomine, Inc., priority 2005, published 2008) are described below.

Counter-ions that a name gives are not always drawn.

One experiment has as its system Arabidopsis thaliana. Description: PPT treatment of T2 plants grown in Petri dishes (segregation check). In kind it is in vivo. To be noted: 12.5 mg/L PPT.
In experiment [1] the test system is mutant Arabidopsis thaliana. Description: Phenotype recovery of mutant T2 plants on pyridoxine-supplemented MS medium. In kind it is in vivo. To be noted: 2.5 mg/L pyridoxine-HCl in MS medium, 30 seeds/Petri dish, slight etiolation observed, FIG. 7. As to the method: The analysis of the AtPDX5 domain led to the inference that the AtPDX5 gene might have an enzymatic function involved in the pyridoxine biosynthesis pathway. To examine this, T2 plants of the mutant Arabidopsis thaliana were cultured in Petri dishes containing a 2.5 mg/L pyridoxine-HCl (Sigma, USA)-supplemented MS medium (30 seeds/Petri dish). […] In addition, the etiolation of the mutant plants was believed to be attributed to a low content of pyridoxine in the medium. Based on the fact that the phenotype recovery was induced by the addition of pyridoxine, the AtPDX5 gene is concluded to be directly responsible for pyridoxine biosynthesis. As described hereinbefore, T2 plants of the mutant Arabidopsis thaliana have the phenotype properties of significant growth delay, etiolation throughout leaves, and death in an early stage, and the mutant Arabidopsis thaliana can have the same phenotype as that of the wild-type in the presence of pyridoxine.

As for `CP(=O)(O)CC[C@H](N)C(=O)O` [PPT, phosphinothricin], in the experiment on Arabidopsis thaliana, the “effect on the five plants having a wild-type phenotype” value was “converted to a fatal phenotype”; the “effect on the other 25 plants (etiolation and retarded growth phenotype)” value is on record as “remained unchanged”. Consider `Cc1ncc(CO)c(CO)c1O` [pyridoxine-HCl, 2-methyl-3-hydroxy-4,5-di(hydroxymethyl)pyridine], for which, in experiment [1], the “phenotype (growth delay) of the mutant versus the wild-type” value is “no significant difference in phenotype”.
